{"source": "ChEMBL document CHEMBL1130668", "about": "“Synthesis and evaluation of paclitaxel C7 derivatives: solution phase synthesis of combinatorial libraries” (1998)", "key": {"MCF7 [1]": {"test_system": "MCF7", "assay": "Cytotoxicity activity was measured against resistant human breast cancer cell line MCF-7 with respect to ED50 of paclitaxel (2200-3700 nM); IA inactive", "format": "functional, cell-based"}, "[2]": {"assay": "Ratio in tubulin to that of paclitaxel (0.3 uM) in microtubule assembly assay; IA inactive", "format": "functional"}, "MCF7 [3]": {"test_system": "MCF7", "assay": "Cytotoxicity activity was measured against human breast cancer cell line MCF-7 with respect to ED50 of paclitaxel (2 nM); IA inactive", "format": "functional, cell-based"}, "MCF7 [4]": {"test_system": "MCF7", "assay": "Cytotoxicity activity was measured against human breast cancer cell line MCF-7; Did not inhibit proliferation at maximum concentration tested", "format": "functional", "settings": "read-out: ED50 (the source's name)"}, "MCF7 [5]": {"test_system": "MCF7", "assay": "Cytotoxicity activity was measured against resistant human breast cancer cell line MCF-7; Did not inhibit proliferation at maximum concentration tested", "format": "functional", "settings": "read-out: ED50 (the source's name)"}, "MCF7 [6]": {"test_system": "MCF7", "assay": "Effect on microtubule assembly in MCF-7 cells, compared to paclitaxel (0.3 uM), given as ratio of respective ED50", "format": "functional, Homo sapiens"}}, "note": "Active and inactive are the calls of the source. The rule behind the calls is not given here."}
{"smiles": "CC(=O)O[C@H]1C(=O)[C@]2(C)[C@@H](OC(=O)c3cnc(Cl)c(Cl)c3)C[C@H]3OC[C@@]3(OC(C)=O)[C@H]2[C@H](OC(=O)c2ccccc2)[C@]2(O)C[C@H](OC(=O)[C@H](O)[C@@H](NC(=O)c3ccccc3)c3ccccc3)C(C)=C1C2(C)C", "values": [{"measurement": "ED50", "setting": "MCF7 [1]", "result": "inactive"}, {"measurement": "Ratio", "setting": "[2]", "result": "inactive"}, {"measurement": "ED50", "setting": "MCF7 [3]", "result": "inactive"}]}
{"smiles": "CC(=O)O[C@H]1C(=O)[C@]2(C)[C@@H](OC(=O)c3ccc4ccccc4c3)C[C@H]3OC[C@@]3(OC(C)=O)[C@H]2[C@H](OC(=O)c2ccccc2)[C@]2(O)C[C@H](OC(=O)[C@H](O)[C@@H](NC(=O)c3ccccc3)c3ccccc3)C(C)=C1C2(C)C", "values": [{"measurement": "EC50", "setting": "MCF7 [4]", "result": "> 80", "unit": "nM"}, {"measurement": "EC50", "setting": "MCF7 [5]", "result": "> 5000", "unit": "nM"}, {"measurement": "Ratio", "setting": "MCF7 [6]", "result": 60}]}
{"smiles": "CC(=O)O[C@H]1C(=O)[C@]2(C)[C@@H](OC(=O)/C=C/Cl)C[C@H]3OC[C@@]3(OC(C)=O)[C@H]2[C@H](OC(=O)c2ccccc2)[C@]2(O)C[C@H](OC(=O)[C@H](O)[C@@H](NC(=O)c3ccccc3)c3ccccc3)C(C)=C1C2(C)C", "values": [{"measurement": "EC50", "setting": "MCF7 [4]", "result": "> 80", "unit": "nM"}, {"measurement": "EC50", "setting": "MCF7 [5]", "result": "> 5000", "unit": "nM"}, {"measurement": "Ratio", "setting": "MCF7 [6]", "result": 5.3}]}
{"smiles": "CC(=O)O[C@H]1C(=O)[C@]2(C)[C@@H](OC(=O)CCc3ccccc3)C[C@H]3OC[C@@]3(OC(C)=O)[C@H]2[C@H](OC(=O)c2ccccc2)[C@]2(O)C[C@H](OC(=O)[C@H](O)[C@@H](NC(=O)c3ccccc3)c3ccccc3)C(C)=C1C2(C)C", "values": [{"measurement": "ED50", "setting": "MCF7 [1]", "result": "inactive"}, {"measurement": "Ratio", "setting": "[2]", "result": "inactive"}, {"measurement": "ED50", "setting": "MCF7 [3]", "result": "inactive"}]}
{"smiles": "C/C=C/C(=O)O[C@H]1C[C@H]2OC[C@@]2(OC(C)=O)[C@H]2[C@H](OC(=O)c3ccccc3)[C@]3(O)C[C@H](OC(=O)[C@H](O)[C@@H](NC(=O)c4ccccc4)c4ccccc4)C(C)=C([C@@H](OC(C)=O)C(=O)[C@]12C)C3(C)C", "note": "[PACLITAXEL C7 CROTONIC ACID ESTER]", "values": [{"measurement": "EC50", "setting": "MCF7 [4]", "result": "> 80", "unit": "nM"}, {"measurement": "EC50", "setting": "MCF7 [5]", "result": "> 5000", "unit": "nM"}, {"measurement": "Ratio", "setting": "MCF7 [6]", "result": 6.7}]}
{"smiles": "CC(=O)O[C@H]1C(=O)[C@]2(C)[C@@H](OC(=O)CCCNC(=O)OC(C)(C)C)C[C@H]3OC[C@@]3(OC(C)=O)[C@H]2[C@H](OC(=O)c2ccccc2)[C@]2(O)C[C@H](OC(=O)[C@H](O)[C@@H](NC(=O)c3ccccc3)c3ccccc3)C(C)=C1C2(C)C", "values": [{"measurement": "EC50", "setting": "MCF7 [4]", "result": "> 80", "unit": "nM"}, {"measurement": "EC50", "setting": "MCF7 [5]", "result": "> 5000", "unit": "nM"}, {"measurement": "Ratio", "setting": "MCF7 [6]", "result": 0.7}]}
{"smiles": "CCCCCCCCCCCCC(=O)O[C@H]1C[C@H]2OC[C@@]2(OC(C)=O)[C@H]2[C@H](OC(=O)c3ccccc3)[C@]3(O)C[C@H](OC(=O)[C@H](O)[C@@H](NC(=O)c4ccccc4)c4ccccc4)C(C)=C([C@@H](OC(C)=O)C(=O)[C@]12C)C3(C)C", "values": [{"measurement": "ED50", "setting": "MCF7 [1]", "result": "inactive"}, {"measurement": "Ratio", "setting": "[2]", "result": "inactive"}, {"measurement": "ED50", "setting": "MCF7 [3]", "result": "inactive"}]}
